Assay results: patent US9035021B2, “Somatostatin analogues” (Novartis AG, priority 2001, dated 2015)
*1 amine or outer side, *2 acyl side, *3 side chain or, on linkers, in order; H or OH if unused. Where a SMILES comes first, the peptide text is derived from it. Side-chain parts run from the residue outwards. [ ]: non-standard residue; d: D form. The star is where a group is joined. Ethylenediamine = C(CN[*:2])N[*:1]; Hyp = O=C(O)[C@@H]1C[C@@H](O)CN1; Phg = N[C@H](C(=O)O)c1ccccc1; CO = O=C([*:1])[*:2]; Bn = c1ccc(C*)cc1

Columns and labels:
insulin secretion = assay: Similar assay for measuring the effect on insulin; parameters: species or system rats; conditions: rat, in vivo
hsst1 = hsst1 (Homo sapiens, UniProt P30872); assay: biochemical
Method: The binding assays may be carried out as disclosed hereunder using membranes from cell lines expressing selectively and stably hsst1, hsst2, hsst3, hsst4 or hsst5, e.g. CHO or COS cells.
Membranes prepared from hsst selective cell lines, e.g. CHO or COS cells stably expressing hsst1 or hsst2 or hsst3 or hsst4 or hsst5 are incubated in triplicate in a total volume of 300 μl at 22° C. for 30 min with increasing concentrations of [^125I-Tyr^11]-SRIF-14 in 10 mmol/l Hepes buffer (pH 7.6) containing 0.5% BSA. The incubation is terminated by rapid filtration and the filters are counted in a counter. Specific binding is total binding minus non-specific binding in the presence of 1 μmol/l somatostatin-14. The experiments are carried out in triplicate. The affinity constant (KD) and number of binding sites are calculated using appropriate statistics and graphical programs.

carotid artery neointima = assay: Angioplasty, rat model of balloon catheter injury; format: in vivo; conditions: 10 μg/kg/h continuous infusion, 14 days after balloon injury
Method: Studies on angioplasty are done in the rat model of balloon catheter injury. Balloon catheterization is performed on day 0, essentially as described by Powell et al. (1989). Under Isofluorane anaesthesia, a Fogarty 2F catheter is introduced into the left common carotid artery to obtain a uniform de-endothelialization. The catheter is then removed, a ligature placed around the external carotid to prevent bleeding and the animals allowed to recover. 2 groups of 12 RoRo rats (400 g, approximately 24 weeks old) are used for the study: one control group and one group receiving Compound A and the rats are fully randomized. Compound A is administered by continuous infusion using minipumps at a rate of 10 μg/kg/h starting 2 days before balloon injury […] until the end of the study, 14 days after balloon injury. The rats are then anaesthetized with Isofluorane and perfused with 0.1 M phosphate buffered saline solution (PBS, pH 7.4) and then for 15 min. with 2.5% glutaraldehyde in phosphate buffer (pH 7.4). Carotid arteries are then excised, separated from surrounding tissue and immersed in 0.1 M cacodylate buffer (pH 7.4) containing 7% saccharose and incubated overnight at 4° C. […] The cross-sectional area of the media, neointima and the lumen are evaluated morphometrically by means of an image analysis system (MCID, Toronto, Canada).

Plasma half-life = format: in vivo; conditions: read-out: Elimination half-life
Method: Compound A has a beneficial plasma half-life. It has an elimination half-life between 15 and 30 hours.

hsst3 = biological target: T1, hsst3 (Homo sapiens, UniProt P32745); assay: Binding assay, membranes from cell lines expressing hsst3, [125I-Tyr11]-SRIF-14 radioligand; conditions: competition binding
T1 construct: expressed in transfected cells
Method: (§1) The experiments are carried out in triplicate.

blood vessel formation = assay: Angiogenesis test in nude mice (SiHa and MDA MB-231 cells); format: in vivo; conditions: dose e.g. 0.01 to 1000 μg/kg s.c.
Method: Compound A also has an inhibiting effect on angiogenesis, as indicated in standard tests, e.g. in nude mice. Briefly, tumor cells (0.1 to 10×10^6 in 0.1 ml) (SiHa cells and MDA MB-231 cells prepared as disclosed in Angiogenesis, Ed. by R. Steiner, P. B. Weisz and R. Langer, 1992, Switzerland) are inoculated intracutaneously. Usually two midventral sites/mouse are injected which are located distant from the main ventral skin vessels so that the background vessel count is low. Control groups receive 0.1 ml 0.02% trypan blue in PBS. 10 days following injection, anesthetized mice are sacrificed by CO2 inhalation. The skin is mounted onto a plastic ring (40 mm diameter) for evaluation by an inverted microscope (Zeiss IM) at 12.5- and 25-fold magnification. As a measure of angiogenesis, vessels are photographed and those are counted that are directly connected with the tumor. In control animals those vessels are counted that are connected to a defined area around the injection site. This area corresponds to the mean area of the dermal tumors. The latter is determined by use of a caliper according to the equation 3.14×r^2. Compound A is administered s.c. either on the day of tumor inoculation or 3 days later. Control animals are vehicle-treated.

hsst2 = biological target: T2, hsst2 (Homo sapiens, UniProt P30874); assay: Binding assay, membranes from cell lines expressing hsst2, [125I-Tyr11]-SRIF-14 radioligand; conditions: competition binding
T2 construct: expressed in transfected cells
Method: as §1

cultured pituitary cells = assay: Inhibition of GH release in vitro from cultured pituitary cells; format: cell-based, rats; conditions: rat anterior pituitary cells, three hours, in the presence of 3×10^−10 M growth hormone releasing factor, RIA
Method: For example, anterior pituitary glands from adult male rats are cut into small pieces and dispersed using 0.1% trypsin in 20 mM HEPES buffer. The dispersed cells are cultured for four days in MEM (Gibco) supplemented with 5% fetal calf serum, 5% horse serum, 1 mM NaHCO3, 2.5 nM dexamethasone, […] and 20 U/ml Pen/Strep. On the day of the experiment the attached cells are washed two times with Krebs-Ringer medium buffered with 20 mM HEPES and supplemented with 5 mM glucose and 0.2% BSA. Subsequently the cells are incubated for three hours with Compound A in the presence of 3×10^−10 M growth hormone releasing factor. The amount of growth hormone released into the medium is measured by RIA. Compound A has an IC50 of 0.4 nM in this assay.

hsst4 = biological target: T3, hsst4 (Homo sapiens, UniProt P31391); assay: Binding assay, membranes from cell lines expressing hsst4, [125I-Tyr11]-SRIF-14 radioligand; conditions: competition binding
T3 construct: expressed in transfected cells
Method: as §1

growth hormone release = assay: Inhibition of growth hormone (GH) release in rats; format: in vivo; conditions: s.c., 6 h, anaesthetized rats
Method: Compound A inhibits the release of growth hormone (GH) in rats. Compound A is administered s.c. to anaesthetized rats. Blood is collected after decapitation 1 h after administration of the compound. The duration of action is estimated on the basis of the inhibition of basal GH secretion 6 h after drug treatment. Hormone levels are measured by RIA 1 h and 6 h after treatment. The ID50-value for the inhibition of the hormone secretion is determined graphically (log-probit) for each experiment and the resulting values are averaged logarithmically.

hsst5 = biological target: T4, hsst5 (Homo sapiens, UniProt P35346); assay: Binding assay, membranes from cell lines expressing hsst5, [125I-Tyr11]-SRIF-14 radioligand; conditions: competition binding
T4 construct: expressed in transfected cells
Method: as §1

IGF-1 plasma levels = IGF-1 plasma levels in vivo in male rats
Method: Furthermore, Compound A inhibits IGF-1 plasma levels in vivo as indicated in standard tests using male rats. Briefly, Compound A is administered by osmotic pump implanted s.c. to male rats of a Lewis strain. Blood samples are collected from the retrobulbar plexus using a short anesthesia with e.g. isoflurane.

kidney allograft = assay: Chronic allograft rejection, rat kidney allograft model; format: in vivo; conditions: 10 μg/kg/h infusion
Method: Chronic Allograft Rejection
The kidney of a male DA (RT1^a) rat is orthotopically transplanted into a male Lewis (RT1^1) recipient. In total 24 animals are transplanted. All animals are treated with cyclosporine A at 7.5 mg/kg/day per os for 14 days starting on the day of transplantation, to prevent acute cellular rejection. Contralateral nephrectomy is not performed. Each experimental group treated with a distinct dose of Compound A or placebo comprises six animals. Starting 14 days after transplantation, the recipient animals are treated up to 112 days by infusion with Compound A or receive placebo. At 14 days after transplantation organ perfusion is measured by MRI. This is repeated at days 53-64 after transplantation and at the end of the experiment. The animals are then autopsied.

heart allograft = assay: Heterotopic mouse heart allotransplantation model; format: in vivo
carotid artery grafts = assay: Carotid artery loop transplantation model; format: in vivo, mice; conditions: 50 μg/kg/h s.c. mini-pump, grafts harvested at 30 days, compared with non-treated animals
Method: Compound A has also been tested in a carotid artery loop transplantation model using B10.A (2R) (H-2h^2) mice as donor and B10.BR(H-2^k) mice as recipient. In brief, the donor carotid artery is transplanted paratopically as a loop into the recipient's carotid artery by an end-to-side anastomosis. A mini-pump is placed s.c. immediately after transplantation that delivers Compound A at a rate of 50 μg/kg/h. Carotid artery grafts are harvested at 30 days after transplantation to analyse vascular remodeling e.g. by morphometric analysis of Verhoeff elastin stained paraffin sections using a computer-assisted system.

[1] = diabetic monkeys
GH = assay: Monkey studies, inhibition of GH; format: in vivo
[2] = biological target: growth hormone secretagogue receptors (Homo sapiens, UniProt Q92847)
Text: Such receptors are disclosed by G. Muccioli et al., J. Endocrinol. 1998, 157, 99-106, by H. Ong et al., in Endocrinology 1998, 139, 432-435 and by R. G. Smith et al., Norm. Res., 1999, 3), 1-8. The binding assay to these receptors may be carried out as disclosed in J. Endocrinol. Invest. 24: RC1-RC3, 2001.

T2 sequence (P30874 whole entry): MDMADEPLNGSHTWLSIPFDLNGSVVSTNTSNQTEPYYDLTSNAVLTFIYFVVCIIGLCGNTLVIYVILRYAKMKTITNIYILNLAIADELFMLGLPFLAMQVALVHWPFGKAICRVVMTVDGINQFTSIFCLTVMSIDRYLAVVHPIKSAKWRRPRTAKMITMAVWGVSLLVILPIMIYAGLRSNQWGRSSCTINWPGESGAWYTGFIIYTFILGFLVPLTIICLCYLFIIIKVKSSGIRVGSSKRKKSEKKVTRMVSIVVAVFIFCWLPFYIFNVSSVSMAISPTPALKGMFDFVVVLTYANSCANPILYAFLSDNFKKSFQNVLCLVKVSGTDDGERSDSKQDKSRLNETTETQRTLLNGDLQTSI
Sequence of growth hormone secretagogue receptors (Q92847 whole entry): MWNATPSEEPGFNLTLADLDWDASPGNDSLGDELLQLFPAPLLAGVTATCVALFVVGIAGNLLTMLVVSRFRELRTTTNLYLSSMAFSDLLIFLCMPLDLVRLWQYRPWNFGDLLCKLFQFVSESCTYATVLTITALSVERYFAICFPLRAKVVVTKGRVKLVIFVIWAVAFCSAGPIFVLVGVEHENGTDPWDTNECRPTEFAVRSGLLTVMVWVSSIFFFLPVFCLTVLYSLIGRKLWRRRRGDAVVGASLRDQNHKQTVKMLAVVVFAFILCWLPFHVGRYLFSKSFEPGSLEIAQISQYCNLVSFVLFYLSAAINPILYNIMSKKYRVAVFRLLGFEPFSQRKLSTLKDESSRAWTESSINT
Sequence of hsst1 (P30872 whole entry, the tested form may be a part): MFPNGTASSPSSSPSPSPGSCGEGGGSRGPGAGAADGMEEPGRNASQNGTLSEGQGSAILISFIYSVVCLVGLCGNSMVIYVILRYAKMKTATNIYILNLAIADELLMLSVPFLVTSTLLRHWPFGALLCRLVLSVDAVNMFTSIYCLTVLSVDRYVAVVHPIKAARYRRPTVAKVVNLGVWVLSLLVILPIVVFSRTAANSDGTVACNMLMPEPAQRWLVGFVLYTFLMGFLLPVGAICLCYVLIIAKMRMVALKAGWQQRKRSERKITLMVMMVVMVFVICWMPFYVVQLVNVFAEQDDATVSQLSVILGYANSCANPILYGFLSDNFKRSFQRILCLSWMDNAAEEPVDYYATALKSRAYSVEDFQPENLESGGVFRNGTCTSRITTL
T3 sequence (P31391 whole entry): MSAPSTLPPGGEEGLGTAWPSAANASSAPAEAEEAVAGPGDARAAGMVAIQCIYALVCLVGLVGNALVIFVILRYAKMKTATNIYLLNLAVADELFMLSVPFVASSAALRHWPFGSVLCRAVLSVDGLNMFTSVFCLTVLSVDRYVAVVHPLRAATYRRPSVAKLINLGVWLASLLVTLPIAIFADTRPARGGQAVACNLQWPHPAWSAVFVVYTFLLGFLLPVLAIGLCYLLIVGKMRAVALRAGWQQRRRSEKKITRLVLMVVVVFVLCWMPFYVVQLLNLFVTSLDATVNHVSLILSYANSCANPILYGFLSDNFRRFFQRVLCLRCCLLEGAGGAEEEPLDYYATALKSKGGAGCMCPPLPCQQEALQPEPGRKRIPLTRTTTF
T4 sequence (P35346 whole entry): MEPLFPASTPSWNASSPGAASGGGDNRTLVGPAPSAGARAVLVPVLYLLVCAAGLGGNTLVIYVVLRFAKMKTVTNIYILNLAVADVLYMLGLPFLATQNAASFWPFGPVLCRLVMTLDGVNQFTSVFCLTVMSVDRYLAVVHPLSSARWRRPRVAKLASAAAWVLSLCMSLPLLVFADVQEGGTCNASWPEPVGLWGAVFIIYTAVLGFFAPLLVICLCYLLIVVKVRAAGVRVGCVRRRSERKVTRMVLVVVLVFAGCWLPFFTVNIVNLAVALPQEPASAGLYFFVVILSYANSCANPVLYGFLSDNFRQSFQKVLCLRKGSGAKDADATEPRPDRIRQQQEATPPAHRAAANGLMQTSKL
T1 sequence (P32745 whole entry): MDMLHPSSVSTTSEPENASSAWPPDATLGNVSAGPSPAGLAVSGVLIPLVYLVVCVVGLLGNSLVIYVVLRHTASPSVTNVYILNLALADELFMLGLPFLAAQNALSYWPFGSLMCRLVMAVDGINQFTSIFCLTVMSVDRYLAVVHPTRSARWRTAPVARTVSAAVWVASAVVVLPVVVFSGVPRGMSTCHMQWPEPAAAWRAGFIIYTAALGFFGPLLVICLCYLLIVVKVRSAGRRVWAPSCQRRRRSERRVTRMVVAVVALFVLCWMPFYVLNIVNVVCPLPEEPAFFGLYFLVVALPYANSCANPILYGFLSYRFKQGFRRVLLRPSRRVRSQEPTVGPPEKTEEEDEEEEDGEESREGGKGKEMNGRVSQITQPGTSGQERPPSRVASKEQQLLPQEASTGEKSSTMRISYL

## NCCCC[C@@H]1NC(=O)[C@@H](Cc2c[nH]c3ccccc23)NC(=O)[C@H](c2ccccc2)NC(=O)[C@@H]2C[C@@H](OC(=O)NCCN)CN2C(=O)[C@H](Cc2ccccc2)NC(=O)[C@H](Cc2ccc(OCc3ccccc3)cc2)NC1=O [Compound A, cyclo[{4-(NH2—C2H4—NH—CO—O—)Pro}-Phg-DTrp-Lys-Tyr(4-Bzl)-Phe]] (cyclo([Hyp]([CO-Ethylenediamine])[Phg][dW]KY(Bn)F))
Insulin secretion
  Effect on insulin secretion: inhibits insulin secretion
hsst1
  IC50: 9.3 nM
Carotid artery neointima
  Neointimal thickening: inhibits neointimal thickening significantly
Plasma half-life
  half-life: 15 to 30 h
hsst3
  IC50: 1.5 nM
Blood vessel formation
  Blood vessel formation: inhibits blood vessel formation
hsst2
  IC50: 1 nM
Cultured pituitary cells
  IC50: 0.4 nM
hsst4
  IC50: > 100 nM
Growth hormone release
  Mean basal ID50, inhibition of GH secretion: 5.5 µg/kg
hsst5
  IC50: 0.16 nM
IGF-1 plasma levels; after 14 days of treatment with 10 μg/kg/h, osmotic pump s.c., male Lewis rats
  Inhibition of IGF-1 plasma levels: more than 60%
IGF-1 plasma levels; rat recipients of aorta or kidney allografts, continuous infusion 10 μg/kg/h up to 126 days
  Lowering of IGF-1 plasma levels on continuous treatment: significant and persistent lowering of IGF-1 plasma levels
Kidney allograft
  Chronic rejection related vascular remodelling and graft infiltration: reduction in chronic rejection related vascular remodelling and graft infiltration
  IGF-1 levels: marked and persistent drop of IGF-1 levels
  Organ perfusion (MRI): improved organ perfusion
Heart allograft
  Vascular remodelling and graft infiltration: beneficial effects on vascular remodelling as well as in graft infiltration
Carotid artery grafts
  Neointimal formation: inhibits neointimal formation
[1]
  Antidiabetic/insulin-sensitizing effect: potent antidiabetic/insulin-sensitizing effect
GH
  Inhibition of GH: potent and efficacious inhibition of GH
[2]
  Displacement of 125I-Tyr-Ala-hexarelin: displaces ^125I-Tyr-Ala-hexarelin
